Several values for one entry are separate records, joined by “and”; a condition that tells them apart may be missing. Identical values can stand only once.
Tested on: LG0703-F498-PDC complex spheroid growth
Test: Anticancer human tumor LG0703-F498-PDC patient-derived lung adenocarcinoma cell line growth inhibition [AhR]
Settings: for viability, T/C: stronger effect = lower value
Summary of the method: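 Spheroids combined tumor cells with HUVEC endothelial cells and human MSCs as stroma. AhR antagonists were paired with standard or investigational drugs, each dosed in half-log steps down from near clinical Cmax, or from 10 microM where Cmax was unknown.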

[1] = curve of first compound, second compound 0.1 µM
[2] = curve of first compound, second compound 0.316 µM
[3] = curve of first compound, second compound 1 µM
[4] = curve of first compound, second compound 3.16 µM
[5] = curve of first compound, second compound 10 µM
[6] = second compound 0.1 µM, first compound 0.00316 µM
[7] = second compound 0.1 µM, first compound 0.01 µM
[8] = second compound 0.1 µM, first compound 0.0316 µM
[9] = second compound 0.1 µM, first compound 0.1 µM
[10] = second compound 0.1 µM, first compound 0.316 µM
[11] = second compound 0.1 µM, first compound 1 µM
[12] = second compound 0.316 µM, first compound 0.00316 µM
[13] = second compound 0.316 µM, first compound 0.01 µM
[14] = second compound 0.316 µM, first compound 0.0316 µM
[15] = second compound 0.316 µM, first compound 0.1 µM
[16] = second compound 0.316 µM, first compound 0.316 µM
[17] = second compound 0.316 µM, first compound 1 µM
[18] = second compound 1 µM, first compound 0.00316 µM
[19] = second compound 1 µM, first compound 0.01 µM
[20] = second compound 1 µM, first compound 0.0316 µM
[21] = second compound 1 µM, first compound 0.1 µM
[22] = second compound 1 µM, first compound 0.316 µM
[23] = second compound 1 µM, first compound 1 µM
[24] = second compound 3.16 µM, first compound 0.00316 µM
[25] = second compound 3.16 µM, first compound 0.01 µM
[26] = second compound 3.16 µM, first compound 0.0316 µM
[27] = second compound 3.16 µM, first compound 0.1 µM
[28] = second compound 3.16 µM, first compound 0.316 µM
[29] = second compound 3.16 µM, first compound 1 µM
[30] = second compound 10 µM, first compound 0.00316 µM
[31] = second compound 10 µM, first compound 0.01 µM
[32] = second compound 10 µM, first compound 0.0316 µM
[33] = second compound 10 µM, first compound 0.1 µM
[34] = second compound 10 µM, first compound 0.316 µM
[35] = second compound 10 µM, first compound 1 µM
[36] = second compound 0.1 µM, first compound 3.16 µM
[37] = second compound 0.1 µM, first compound 10 µM
[38] = second compound 0.316 µM, first compound 3.16 µM
[39] = second compound 0.316 µM, first compound 10 µM
[40] = second compound 1 µM, first compound 3.16 µM
[41] = second compound 1 µM, first compound 10 µM
[42] = second compound 3.16 µM, first compound 3.16 µM
[43] = second compound 3.16 µM, first compound 10 µM
[44] = second compound 10 µM, first compound 3.16 µM
[45] = second compound 10 µM, first compound 10 µM
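Further: luminescence taken as a proxy for viable cell amount.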
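Wherever viability, T/C is given: percent of DMSO vehicle control where 100% means growth equal to vehicle.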

Structure (SMILES)	IC50 [1]	IC50 [2]	IC50 [3]	IC50 [4]	IC50 [5]	viability, T/C [8]	viability, T/C [9]	viability, T/C [10]	viability, T/C [11]	viability, T/C [14]	viability, T/C [15]	viability, T/C [16]	viability, T/C [17]	viability, T/C [20]	viability, T/C [21]	viability, T/C [22]	viability, T/C [23]	viability, T/C [26]	viability, T/C [27]	viability, T/C [28]	further results
CC1COCCN1c1cc(-c2ccnn2C)c2ccnc(-c3ccn[nH]3)c2n1 (centres undefined) + Cc1cncc(-c2nc(NCCc3c[nH]c4ccccc34)c3ncn(C(C)C)c3n2)c1	621 nM	279 nM	468 nM	< 3.16 nM	< 3.16 nM	112%	82.3%	64.6%	40.8%	102%	76.4%	47.5%	34.3%	111%	83.2%	58.9%	35.5%	33.2%	27.5%	18.7%	viability, T/C [6]: 104%; viability, T/C [7]: 103%; viability, T/C [12]: 111%; viability, T/C [13]: 120%; viability, T/C [18]: 119%; viability, T/C [19]: 112%; viability, T/C [24]: 38%; viability, T/C [25]: 34.6%; viability, T/C [29]: 15.7%; viability, T/C [30]: 1.11%; viability, T/C [31]: 1.21%; viability, T/C [32]: 1.42%; viability, T/C [33]: 1.71%; viability, T/C [34]: 0.8%; viability, T/C [35]: 2.39%
O=C(C=Cc1cccc(S(=O)(=O)Nc2ccccc2)c1)NO + Cc1ccccc1N=Nc1ccc(NC(=O)c2ccnn2C)c(C)c1	828 nM	809 nM	921 nM	901 nM	1280 nM	106%	123%	84%	43.9%	110%	99.7%	81.6%	42.9%	122%	111%	83.9%	50.4%	97.2%	113%	86.5%	viability, T/C [36]: 12.4%; viability, T/C [37]: 2.33%; viability, T/C [38]: 13.5%; viability, T/C [39]: 2.43%; viability, T/C [40]: 12.6%; viability, T/C [41]: 2.97%; viability, T/C [29]: 44.8%; viability, T/C [42]: 17.8%; viability, T/C [43]: 2.8%; viability, T/C [32]: 103%; viability, T/C [33]: 101%; viability, T/C [34]: 74.7%; viability, T/C [35]: 60.3%; viability, T/C [44]: 25.9%; viability, T/C [45]: 6.34%
Nc1ccn(C2OC(CO)C(O)C2(F)F)c(=O)n1 (centres undefined) + Cc1ccccc1N=Nc1ccc(NC(=O)c2ccnn2C)c(C)c1	< 31.6 nM	< 31.6 nM	< 31.6 nM	< 31.6 nM	< 31.6 nM	40.4%	34.1%	31%	31.8%	35.8%	36.6%	30.5%	32%	37.6%	33.7%	34.1%	31.4%	30.8%	38.2%	31%	viability, T/C [36]: 31%; viability, T/C [37]: 28.1%; viability, T/C [38]: 31.9%; viability, T/C [39]: 22.6%; viability, T/C [40]: 29.5%; viability, T/C [41]: 22.1%; viability, T/C [29]: 27.8%; viability, T/C [42]: 24.6%; viability, T/C [43]: 24.5%; viability, T/C [32]: 39.3%; viability, T/C [33]: 36.5%; viability, T/C [34]: 37.5%; viability, T/C [35]: 37.8%; viability, T/C [44]: 36.9%; viability, T/C [45]: 26.2%
CC1COCCN1c1cc(-c2ccnn2C)c2ccnc(-c3ccn[nH]3)c2n1 (centres undefined) + CC(CO)NC(=O)c1cc(-c2ccc(Cl)cc2)nn(-c2cnn(C)c2)c1=O	666 nM	465 nM	602 nM	416 nM	243 nM	93.4%	70.6%	66.2%	42.5%	96.6%	72.5%	55.8%	43.4%	90.7%	82.4%	58.1%	42.5%	78.2%	67.2%	55.1%	viability, T/C [6]: 107%; viability, T/C [7]: 104%; viability, T/C [12]: 93.2%; viability, T/C [13]: 110%; viability, T/C [18]: 108%; viability, T/C [19]: 102%; viability, T/C [24]: 87.5%; viability, T/C [25]: 90.5%; viability, T/C [29]: 37.9%; viability, T/C [30]: 101%; viability, T/C [31]: 90.1%; viability, T/C [32]: 82.7%; viability, T/C [33]: 60.8%; viability, T/C [34]: 47.1%; viability, T/C [35]: 32.6%
COc1cc(C2c3cc4c(cc3C(OC3OC5COC(C)OC5C(O)C3O)C3COC(=O)C23)OCO4)cc(OC)c1O (centres undefined)	–	–	–	–	–	–	–	–	–	–	–	–	–	–	–	–	–	–	–	–	viability, T/C (compound 0.0316 µM): 95.8% and 105% and 103%; viability, T/C (compound 0.1 µM): 109% and 113% and 98.3%; viability, T/C (compound 0.316 µM): 99.8% and 102% and 96.6%; viability, T/C (compound 1 µM): 86.4% and 106% and 110%; viability, T/C (compound 3.16 µM): 80.5% and 96.5% and 87.8%; viability, T/C (compound 10 µM): 64.3% and 75.6% and 70.2%; IC50 (curve of compound): > 10000 nM
COc1ccc([C@@H](O)c2cc(-c3ncnc4cc(N5CCOCC5)ccc34)c(F)cc2Cl)nn1	–	–	–	–	–	–	–	–	–	–	–	–	–	–	–	–	–	–	–	–	viability, T/C (compound 0.0316 µM): 97% and 89.7% and 103%; viability, T/C (compound 0.1 µM): 94.4% and 103% and 102%; viability, T/C (compound 0.316 µM): 94.6% and 103% and 100%; viability, T/C (compound 1 µM): 93.6% and 93.9% and 90%; viability, T/C (compound 3.16 µM): 75.6% and 76.3% and 67.8%; viability, T/C (compound 10 µM): 26.7% and 26.9% and 26.5%; IC50 (curve of compound): 5770 nM and 5830 nM and 5190 nM

— PubChem BioAssay AID1919013 (Molecular Pharmacology Branch, DTP, NCI, 2023)
